Experimental data published in patent publication US20240150293A1, “SPIROCYCLOHEXANE DERIVATIVES, PHARMACEUTICAL COMPOSITIONS CONTAINING THEM AND THEIR USES AS ANTI-APOPTOTIC INHIBITORS” (LES LABORATOIRES SERVIER, priority 2021, published 2024).

Columns and labels:
[1] = test system: NCI-H929 cell lines; assay: In vitro cytotoxicity, CellTiter-Glo (CTG) assay (Example B, Method B); type: cell-based; conditions: Homo sapiens, NCI-H929, 48 h, NCI-H929 cells, 48 h incubation, read-out: C50
In short: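 NCI-H929 cells exposed to an 11-point compound series from 10 mM DMSO stocks (top final 30 μM) for 48 h at 37° C., 5% CO2. Viability measured as ATP by CellTiter-Glo luminescence; C50 is the concentration giving 50% cellular viability.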

[2] = test system: AMO-1 multiple myeloma xenografts; assay: Anti-tumor activity in vivo (Example D); design: species or system SCID mice
Method: The anti-tumor activity of the compounds of the invention was evaluated using AMO-1 multiple myeloma xenografts.
1×10^7 cells were subcutaneously grafted into immunosuppressed SCID mice. 7-10 days later, when the tumor mass had reached an average volume of about 150 mm^3, mice were treated with the various compounds once a week for 2 weeks (per os, HEC 1%/Tween 80 99:1). Tumor size was measured three times per week using electronic calipers.
At the end of the treatment cycle (d9), tumor growth inhibition (TGI) was calculated using the formula: […]
wherein DTV (Delta Tumor Volume) at Dx was calculated as follows: […]
(Tumor Volume at Dx)−(Tumor Volume at Randomization).

[3] = test system: AMO-1 multiple myeloma xenograft; assay: Quantification of the cleaved form of PARP in vivo, IV (Example E); design: species or system SCID mice; conditions: single dose
Method: (§1) The ability of the compounds of the invention to induce apoptosis was evaluated in vivo using the AMO-1 multiple myeloma xenograft.
(§2) 1×10^7 cells were subcutaneously grafted into immunosuppressed SCID mice. 12-14 days later, when tumors had reached the appropriate volume, mice (3 per group) were treated once with the various compounds (IV). Tumor samples were recovered 6 or 16 hours after dosing and lysed. Cleared lysates were used for cleaved PARP quantification (as a marker of apoptosis induction) using the Meso Scale Discovery (MSD) Elisa platform test. Results are expressed as the ratio between cleaved PARP in treated mice over control mice.

[4] = molecular target: Cy5-labelled Mcl1 (amino acids 171-321) C286S protein (UniProtKB Q07820) (Homo sapiens (Human), UniProt Q07820, C286S); assay: Inhibition of Mcl-1 by the fluorescence quenching assay (Example A, Method B); type: binding
Cy5-labelled Mcl1 (amino acids 171-321) C286S protein, sequence (Q07820 171-321 C286S): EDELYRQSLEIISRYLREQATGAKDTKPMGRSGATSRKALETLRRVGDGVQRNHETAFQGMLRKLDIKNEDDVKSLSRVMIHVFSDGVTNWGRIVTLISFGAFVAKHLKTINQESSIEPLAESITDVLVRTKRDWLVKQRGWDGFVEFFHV
In short: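 Cy5-labelled Mcl1 171-321 C286S (1 nM) quenched by TQ5WS-labelled PUMA peptide (10, 20 or 400 nM); displacement raises fluorescence (Ex 620/Em 680 nm). Buffer 10 mM HEPES, 150 mM NaCl, 0.05% Tween 20, pH 7.4, 5% DMSO; 2 h at room temperature, 11-point curves, IC50 converted to Ki (cKi/eKi).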

[5] = test system: AMO-1 multiple myeloma xenograft; assay: Quantification of the cleaved form of PARP in vivo, per os (Example C); design: species or system SCID mice; conditions: single dose per os, tumors recovered 16 hours after dosing
Method: as §1
as §2, with “(per os, HEC 1%/Tween 80 99:1).” for “(IV).”, “recovered” for “recovered 6 or”

[6] = 30 mpk per os once a week for 2 weeks
[7] = 60 mpk per os once a week for 2 weeks

Row | Ki [4] [nM] | Compound | IC50 [1] [nM] | % TGI (d9) [2, 6] [%] | % TGI (d9) [2, 7] [%] | Cleaved PARP (fold to control) ([3]; 15 mpk IV, time-point 6 h) | Cleaved PARP (fold to control) ([3]; 30 mpk IV, time-point 6 h) | Cleaved PARP (fold to control) ([3]; 30 mpk IV, time-point 16 h) | Cleaved PARP (fold to control) ([5]; 30 mpk) | Cleaved PARP (fold to control) ([5]; 60 mpk)
1 | 0.0736 | C[C@@H](COc1ccnc2c1[C@H](C)CCC2)C[C@H]1Cc2cc3c(cc2[C@]12CC[C@@](Nc1ccc(F)c(Cl)c1)(C(=O)O)CC2)OCO3 [Example 845, (1r,4S,6′S)-4-(3-chloro-4-fluoroanilino)-6′-[(2R)-2-methyl-3-{[(5R)-5-methyl-5,6,7,8-tetrahydroquinolin-4-yl]oxy}propyl]-6′,7′-dihydro-2′H-spiro[cyclohexane-1,5′-indeno[5,6-d][1,3]dioxole]-4-carboxylic acid] | 38.3 | 88.2 | 128.3 | 188.7 fold to control | 158.2 fold to control | 116.4 fold to control |  | 
2 | 0.0801 | CCOc1ccc2c(c1)[C@]1(CC[C@@](Nc3cccc(Cl)c3)(C(=O)O)CC1)[C@@H](C[C@@H](C)COc1ccnc3c1[C@H](C)CCC3)C2 [Example 784, (1r,2′S,4S)-4-(3-chloroanilino)-6′-ethoxy-2′-[(2R)-2-methyl-3-{[(5R)-5-methyl-5,6,7,8-tetrahydroquinolin-4-yl]oxy}propyl]-2′,3′-dihydrospiro[cyclohexane-1,1′-indene]-4-carboxylic acid] | 106 | 103.6 | 112 | 227.5 fold to control | 174.2 fold to control | 129.9 fold to control |  | 
3 | 0.0554 | C[C@@H](COc1ccnc2c1[C@H](C)CCC2)C[C@H]1Cc2cc3c(cc2[C@]12CC[C@@](Nc1cccc(Cl)c1)(C(=O)O)CC2)OCO3 [Example 840, (1r,4S,6′S)-4-(3-chloroanilino)-6′-[(2R)-2-methyl-3-{[(5R)-5-methyl-5,6,7,8-tetrahydroquinolin-4-yl]oxy}propyl]-6′,7′-dihydro-2′H-spiro[cyclohexane-1,5′-indeno[5,6-d][1,3]dioxole]-4-carboxylic acid] | 30.5 | 83.8 | 119.8 | 127.8 fold to control | 166.3 fold to control | 138.2 fold to control | 19.2 fold to control | 29.4 fold to control
4 | 0.0267 | COCc1ccc2c(c1)[C@]1(CC[C@@](Nc3cccc(Cl)c3)(C(=O)O)CC1)[C@@H](C[C@@H](C)COc1ccnc3c1[C@H](C)CCC3)C2 [Example 919, (1r,2′S,4S)-4-(3-chloroanilino)-6′-(methoxymethyl)-2′-[(2R)-2-methyl-3-{[(5R)-5-methyl-5,6,7,8-tetrahydroquinolin-4-yl]oxy}propyl]-2′,3′-dihydrospiro[cyclohexane-1,1′-indene]-4-carboxylic acid] | 38.9 |  | 121 | 185.6 fold to control | 199.9 fold to control | 69.7 fold to control | 6.7 fold to control | 9.7 fold to control
